Our source for the Ki and IC50 values is ChEMBL document CHEMBL4680266, “Iodoquinazolinones bearing benzenesulfonamide as human carbonic anhydrase I, II, IX and XII inhibitors: Synthesis, biological evaluation and radiosensitizing activity” (Eur J Med Chem, 2020).

Molecules are shown by their SMILES.

In assay [1] the target is Carbonic anhydrase 9 (Homo sapiens, UniProt Q16790). Put plainly: Inhibition of recombinant human carbonic anhydrase 9 incubated for 15 mins prior to testing measured for 10 to 100 secs by phenol red-based stopped-flow CO2 hydration assay.
Assay [2] has as its system HCT-116. The experiment in a line: Cytotoxicity against human HCT-116 cells assessed as reduction in cell viability irradiated with 8 Gy gamma radiation and measured after 24 hrs by MTT assay. It is filed as functional, cell-based. Conditions: HCT-116, light or radiation study. (In general: Tetrazolium assays rely on reduction of a dye to a coloured formazan, in cell work by metabolically active cells.)

Assay [3] relates to HCT-116. The experiment in a line: Cytotoxicity against human HCT-116 cells assessed as reduction in cell viability by MTT assay. It is filed as functional, cell-based.
In assay [4] the test system is WI-38. Put plainly: Cytotoxicity against human WI-38 cells assessed as reduction in cell viability by MTT assay. It is filed as cell-based.
Assay [5] deals with HepG2. Put plainly: Cytotoxicity against human HepG2 cells assessed as reduction in cell viability by MTT assay. It is filed as functional, cell-based.
In assay [6] the test system is MCF7. Put plainly: Cytotoxicity against human MCF7 cells assessed as reduction in cell viability by MTT assay. Type of assay: functional, cell-based.
The test system of assay [7] is WI-38. The experiment in a line: Cytotoxicity against human WI-38 cells assessed as reduction in cell viability irradiated with 8 Gy gamma radiation and measured after 24 hrs by MTT assay. It is filed as cell-based. The note with it: WI-38, light or radiation study.
For assay [8], the system named is MCF7. Put plainly: Cytotoxicity against human MCF7 cells assessed as reduction in cell viability irradiated with 8 Gy gamma radiation and measured after 24 hrs by MTT assay. Conditions: MCF7, light or radiation study. It is filed as functional, cell-based.
In assay [9] the test system is HepG2. Put plainly: Cytotoxicity against human HepG2 cells assessed as reduction in cell viability irradiated with 8 Gy gamma radiation and measured after 24 hrs by MTT assay. Type of assay: functional, cell-based. Conditions: HepG2, light or radiation study.

As for `CCc1cccc(NC(=O)CSc2nc3ccc(I)cc3c(=O)n2-c2ccc(S(N)(=O)=O)cc2)c1`, the Ki in assay [1] was found to be 0.0552 µM.

Regarding `COc1cc(NC(=O)CSc2nc3ccc(I)cc3c(=O)n2-c2ccc(S(N)(=O)=O)cc2)cc(OC)c1`, the Ki in assay [1] was 0.0291 µM.

As to `COc1cc(NC(=O)CSc2nc3ccc(I)cc3c(=O)n2-c2ccc(S(N)(=O)=O)cc2)cc(OC)c1OC`, in assay [1], the Ki amounted to 0.0304 µM.

Turning to `Cc1cc([N+](=O)[O-])ccc1NC(=O)CSc1nc2ccc(I)cc2c(=O)n1-c1ccc(S(N)(=O)=O)cc1`, in assay [1], the Ki was 0.0591 µM.

As to `Cc1ccccc1NC(=O)CSc1nc2ccc(I)cc2c(=O)n1-c1ccc(S(N)(=O)=O)cc1`, the Ki in [1] stood at 0.429 µM.

As to `CCOc1ccc(NC(=O)CSc2nc3ccc(I)cc3c(=O)n2-c2ccc(S(N)(=O)=O)cc2)cc1`, in assay [1], the Ki was 0.0345 µM.

For `Cc1cccc([N+](=O)[O-])c1NC(=O)CSc1nc2ccc(I)cc2c(=O)n1-c1ccc(S(N)(=O)=O)cc1`, in [1], the inhibition constant (Ki) worked out at 0.0903 µM.

For the compound `CCc1ccc(NC(=O)CSc2nc3ccc(I)cc3c(=O)n2-c2ccc(S(N)(=O)=O)cc2)cc1`, in [1], the Ki was 0.0673 µM.

`NS(=O)(=O)c1ccc(-n2c(SCC(=O)Nc3ccccc3)nc3ccc(I)cc3c2=O)cc1`: the Ki in assay [1] was 0.337 µM.

On to `CCc1ccccc1NC(=O)CSc1nc2ccc(I)cc2c(=O)n1-c1ccc(S(N)(=O)=O)cc1`, for which the IC50 amounted to 0.019 µM in [2]; 1.94 µM in assay [3]; 5.71 µM in assay [4]; 1.78 µM in assay [5]; 3.07 µM in assay [6]; 3.15 µM in assay [7]. Besides, the figures for the IC50 in assay [8] and in assay [9] were 0.031 µM and 0.041 µM, respectively. In addition, the Ki in [1] is 0.0291 µM.

In the case of `NS(=O)(=O)c1ccc(-n2c(S)nc3ccc(I)cc3c2=O)cc1`, the Ki in [1] stood at 2.23 µM.

On to `Cc1cccc(NC(=O)CSc2nc3ccc(I)cc3c(=O)n2-c2ccc(S(N)(=O)=O)cc2)c1`, for which the Ki in [1] came out at 0.244 µM.

`COc1ccc(NC(=O)CSc2nc3ccc(I)cc3c(=O)n2-c2ccc(S(N)(=O)=O)cc2)cc1`: the Ki in [1] stood at 0.0732 µM.

For the compound `Cc1ccc(NC(=O)CSc2nc3ccc(I)cc3c(=O)n2-c2ccc(S(N)(=O)=O)cc2)cc1`, the Ki in assay [1] worked out at 0.0917 µM.

Consider `NS(=O)(=O)c1ccc(-n2c(SCC(=O)Nc3ccc([N+](=O)[O-])cc3[N+](=O)[O-])nc3ccc(I)cc3c2=O)cc1`, for which the Ki in assay [1] worked out at 0.0469 µM.

Usually Ki stands for the dissociation constant of the complex between target and ligand, obtained from inhibition or displacement. One may read the IC50 as the concentration that inhibits the measured activity by half.
